Measurements from patent US20030232986A1, “Inhibitors of caspases” (Vertex Pharmaceuticals Incorporated, priority 1998, published 2003).

Experiments:
[1] = Single pass perfusion in rat: GI wall and liver metabolism, biliary excretion; type: in vitro ADME; conditions: for f (g) Xf (h): GI wall metabolism f(g) x liver metabolism f(h)
Protocol: Single pass perfusion studies in rat were performed to assess gastrointestinal (GI) wall metabolism (f(g)), liver metabolism (f(h)), and biliary excretion. The method used has been described in Pang, C. S., J. Pharmacol. Exp. Therapeutics, 333, pp. 788-798 (1984).

Caspase-3 = biological target: T1, Caspase-3 (Homo sapiens, UniProt P42574); experiment: Caspase-3 enzyme inhibition (Ki); type: biochemical; conditions: substrate Ac-DEVD-pNA 60 μM, 8% glycerol in buffer, 37° C.
T1 sequence (P42574 29-175 limits assumed): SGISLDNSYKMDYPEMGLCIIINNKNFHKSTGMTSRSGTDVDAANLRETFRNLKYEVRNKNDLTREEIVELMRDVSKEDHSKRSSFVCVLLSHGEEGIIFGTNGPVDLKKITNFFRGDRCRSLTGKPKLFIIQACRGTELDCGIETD
T1 sequence (P42574 176-277 limits assumed): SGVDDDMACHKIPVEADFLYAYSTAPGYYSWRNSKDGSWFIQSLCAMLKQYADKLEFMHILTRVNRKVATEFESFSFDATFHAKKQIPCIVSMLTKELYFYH
Protocol: Ki values for test compounds with the various caspases were obtained by the method of Margolin et al. (J. Biol. Chem., 272 pp. 7223-7228 (1997)). Assays were performed in 10 mM Tris (Sigma Corp, St Louis Mo.) pH 7.5, 1 mM Dithiothreitol (DTT, Research Organic INC, Cleveland, Ohio) and 0.1% CHAPS (Pierce, Rockford Ill.) at 37° C. For caspase-3, a solution of 8% glycerol was added to the assay buffer to improve enzyme stability. A 65 μL aliquot of the assay buffer and 5 μL aliquot of the appropriate dilutions of inhibitor in DMSO where pipetted into a 96 well plate, treated with 10 μL of caspase, then diluted in assay buffer (0.5-40 nM active protein by active site titration). A control containing DMSO but no compound was included for each determination. The plates were then incubated for 15 minutes at 37° C., before addition of the appropriate substrate (20 μL, final concentration 1-4×KM, final assay volume 100 μL) to initiate the reaction. Reaction rates were measured at 37° C. either by following the time dependant increase in absorbance at 405 nm (for the pNA substrates) or in fluorescence (Ex 390, Em 460) (for the AMC substrates). The rates obtained were plotted against inhibitor concentration and the data fit to the Morrison tight-binding equation for competitive inhibitors (Morrison, J. F., Biochem. Biophys. Acta, 185 pp. 269-286 (1969)). The substrates used for the individual assays were as follows:
Caspase-3 Ac-DEVD-pNA (Bachem, King of Prussia, Pa.) (final concentration in assay, 60 μM)

[2] = test system: Human Peripheral Blood Mononuclear Cells (PBMC), mature IL-1β; experiment: PBMC cell assay: IL-1β assay with human peripheral blood mononuclear cells; type: cell-based; conditions: LPS-stimulated human PBMC, mature IL-1β in supernatant by ELISA
In short: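 Donor PBMC (suspension at 6×10^6 cells/ml) or adherent-enriched monocytes were stimulated with 5 ng/ml LPS (final) alongside 5–6 compound dilutions bracketing the ICE Ki, at 0.1% DMSO final, for 16–18 hr at 37° C, 5% CO2. Mature IL-1β in supernatants was measured by ELISA; IC50 was calculated relative to LPS-only controls.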

Caspase-1 = biological target: T2, Caspase-1 (Homo sapiens, UniProt P29466); experiment: Caspase-1 enzyme inhibition (Ki); type: biochemical; conditions: substrate Suc-YVAD-pNA 80 μM, 37° C., pH 7.5
T2 sequence (P29466 120-297 limits assumed): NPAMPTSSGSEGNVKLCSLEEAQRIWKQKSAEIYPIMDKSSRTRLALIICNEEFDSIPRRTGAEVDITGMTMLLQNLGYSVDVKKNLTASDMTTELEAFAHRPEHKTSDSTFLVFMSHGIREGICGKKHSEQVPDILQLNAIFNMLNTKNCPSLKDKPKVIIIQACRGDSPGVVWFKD
T2 sequence (P29466 317-404 limits assumed): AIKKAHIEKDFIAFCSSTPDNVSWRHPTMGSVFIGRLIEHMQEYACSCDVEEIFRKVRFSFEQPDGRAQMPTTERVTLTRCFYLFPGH
In short: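 Ki obtained by fitting rate versus inhibitor concentration to the Morrison tight-binding equation for competitive inhibitors, with pNA release read at 405 nm at 37 °C. Substrate Suc-YVAD-pNA (80 μM final) added after 15 min enzyme–inhibitor preincubation in Tris pH 7.5 buffer with DTT and CHAPS.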

[3] = test system: Human whole blood, IL-1β production; experiment: Whole blood assay for IL-1β production; type: cell-based; conditions: LPS-stimulated whole blood, IL-1β by ELISA
In short: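 LPS-stimulated (5.0 ng/ml final) human whole blood incubated with test compound in saline (or plasma/PBS-5% DMSO for hydrophobic compounds) at 30° C for 16-18 hr. Plasma IL-1β then measured by ELISA at 1:200 dilution, against no-LPS, no-inhibitor and vehicle controls.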

| Compound | Biliary Excretion [1] | f (g) Xf (h) [1] | Ki (Caspase-3) [µM] | Ki (Caspase-1) [µM] | IC50 [3] [µM] | IC50 [2] [µM] |
| --- | --- | --- | --- | --- | --- | --- |
| CC(C)[C@H](NC(=O)c1nccc2ccccc12)C(=O)N[C@@H](C)C(=O)N[C@H](C=O)CC(=O)O [Example 29b] | B (Category “B” indicates 5-10%) | A (category “A” indicates <0.25) | > 1 | < 0.01 |  | 1 to 2 |
| C[C@H](NC(=O)c1ccc(N)c(Cl)c1)C(=O)N[C@@H](C)C(=O)N[C@H](C=O)CC(=O)O [Example 29q] | A (category “A” indicates <5%) | C (Category “C” indicates 0.5-0.75) |  | < 0.01 | < 2.5 |  |
| CC(C)[C@H](NC(=O)c1ccc(N)c(Cl)c1)C(=O)N[C@@H](C)C(=O)N[C@H](C=O)CC(=O)O [Example 29r] | B (Category “B” indicates 5-10%) | C (Category “C” indicates 0.5-0.75) |  | < 0.01 | < 2.5 |  |

Second part, led by results:

| Biliary Excretion [1] | f (g) Xf (h) [1] | Ki (Caspase-3) [µM] | Ki (Caspase-1) [µM] | IC50 [3] [µM] | Compound | IC50 [2] [µM] |
| --- | --- | --- | --- | --- | --- | --- |
|  |  | 0.01 to 1 | > 1 |  | CC(=O)NC(CC(=O)O)C(=O)NC1CCN(C(CC(C)C)C(=O)NC(C=O)CC(=O)O)C1=O (stereo not shown) [Example 32d] |  |
| A (category “A” indicates <5%) | B (Category “B” indicates 0.25-0.49) |  | 0.01 to 1 | 2.5 to 7.5 | COc1cc(NC(C)=O)c(Cl)cc1C(=O)N[C@@H](C)C(=O)N1CCC[C@H]1C(=O)N[C@H](C=O)CC(=O)O [Example 122r, 3-({1-[2-(4-Acetylamino-5-chloro-2-methoxy-benzoylamino)-propionyl]-pyrrolidine-2-carbonyl}-amino)-4-oxo-butyric acid] |  |
